Reference: patent publication US12679878B2, “CRF2 receptor agonists and their use in therapy” (SANOFI, priority 2020, dated 2026)
Like-named read-outs stand apart in the source and are kept apart here. Starred links: 1 amine or outer side, 2 acyl side, 3 side chain; linkers in the order of their positions; H or OH if unused. Non-standard residues stand in square brackets, D forms with d. Residues, ends and D or L forms follow the SMILES beside them. Groups on a side chain read outwards from the residue. *: point of attachment. C18 diacid = O=C(O)CCCCCCCCCCCCCCCCC(=O)*; γGlu = O=C(O)[C@H](CCC(=O)[*:2])N[*:1]; AEEA = NCCOCCOCC(=O)O; Aib = CC(C)(N)C(=O)O

Experiments:
human CRF2α receptor = target: T1, human CRF2α receptor (Homo sapiens, UniProt Q13324); test: cAMP agonism at human CRF2 α receptor in TeloHEAC cells (Example 7); type: cell-based; conditions: cAMP HTRF, TeloHEAC cells stably expressing human CRF2 α
T1 construct: expressed in transfected cells; host or cells: TeloHEAC
T1 sequence (Q13324 1-411): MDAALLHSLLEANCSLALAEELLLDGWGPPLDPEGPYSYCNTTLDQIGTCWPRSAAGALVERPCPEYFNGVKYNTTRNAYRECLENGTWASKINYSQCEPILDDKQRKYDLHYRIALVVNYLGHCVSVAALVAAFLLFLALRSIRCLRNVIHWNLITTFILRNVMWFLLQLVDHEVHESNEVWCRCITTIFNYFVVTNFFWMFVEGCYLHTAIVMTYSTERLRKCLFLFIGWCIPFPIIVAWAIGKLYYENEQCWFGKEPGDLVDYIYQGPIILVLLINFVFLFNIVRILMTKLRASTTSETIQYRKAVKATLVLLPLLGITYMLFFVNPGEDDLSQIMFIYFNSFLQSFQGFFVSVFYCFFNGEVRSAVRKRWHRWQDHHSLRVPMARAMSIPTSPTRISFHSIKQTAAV
Outline: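 HTRF ratio 665/620 nm, read 1 h after lysis reagents, reports cAMP. Cells: thawed stocks, 2000/well, 30 min RT with compound in HBSS, 20 mM HEPES, 0 or 0.1% HSA, 2 mM IBMX. Activity normalised to UCN2 1000 nM = 100%; EC50 from half-maximal activation.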

CRF1R receptor = target: T2, CRF1R receptor (Homo sapiens, UniProt P34998); test: cAMP activity at anti-target CRF1R, CHO-K1 cell line clone 2 (Example 19.10); type: cell-based; conditions: CRF1R CHO-K1 clone 2; for EC50: 0% HSA, read-out: EC50 [nM] 0% HSA; for Emax: 100% = Sauvagine at 100 nM
T2 construct: host or cells: CHO-K1 clone 2
T2 sequence (P34998 24-415): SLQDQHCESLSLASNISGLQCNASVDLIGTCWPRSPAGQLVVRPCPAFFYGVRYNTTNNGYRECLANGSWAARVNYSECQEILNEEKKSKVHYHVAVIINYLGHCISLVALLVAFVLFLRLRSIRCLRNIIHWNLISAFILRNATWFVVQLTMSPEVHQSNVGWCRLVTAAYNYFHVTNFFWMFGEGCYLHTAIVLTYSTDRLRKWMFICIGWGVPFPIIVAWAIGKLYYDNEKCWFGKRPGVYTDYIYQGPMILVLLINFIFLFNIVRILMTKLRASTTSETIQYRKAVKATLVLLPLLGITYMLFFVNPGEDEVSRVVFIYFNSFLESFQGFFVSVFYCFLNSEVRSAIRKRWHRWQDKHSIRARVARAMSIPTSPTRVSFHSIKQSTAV
Outline: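 The cAMP read-out used the same protocol as the previous assay, except that Sauvagine at 100 nM set the 100% activation control. Cells were CHO-K1 clone 2 overexpressing CRF1R, cultured in F12 medium with 10% FBS and G418 and stored frozen until use.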

[1] = 0% HSA, read-out: EC50 [nM], 0% HSA

Row | EC50 (human CRF2α receptor; [1]) [nM] | EC50 (human CRF2α receptor; 0.1% HSA, read-out: EC50 [nM], 0.1% HSA) [nM] | EC50 (CRF1R receptor) [nM] | Emax (CRF1R receptor) [%] | SMILES
1 | 0.84 |  | > 100 | 14 | CC[C@H](C)[C@H](N)C(=O)N[C@H](C(=O)N[C@@H](CC(C)C)C(=O)N[C@@H](CO)C(=O)N[C@@H](CC(C)C)C(=O)N[C@@H](CC(=O)O)C(=O)N[C@H](C(=O)N1CCC[C@H]1C(=O)N[C@H](C(=O)N[C@@H](CCCCN)C(=O)N[C@@H](CC(C)C)C(=O)N[C@@H](CCCCNC(=O)COCCOCCNC(=O)COCCOCCNC(=O)CC[C@H](NC(=O)CCCCCCCCCCCCCCCCC(=O)O)C(=O)O)C(=O)N[C@@H](CCC(N)=O)C(=O)N[C@H](C(=O)N[C@@H](CC(C)C)C(=O)N[C@@H](CC(C)C)C(=O)N[C@@H](CCC(=O)O)C(=O)N[C@@H](CCC(N)=O)C(=O)N[C@@H](CCC(=O)O)C(=O)N[C@@H](CCCNC(=N)N)C(=O)N[C@@H](CCC(N)=O)C(=O)N[C@@H](CCCCN)C(=O)NC(C)(C)C(=O)N[C@@H](CCC(N)=O)C(=O)N[C@@H](CCCNC(=N)N)C(=O)N[C@@H](CCC(=O)O)C(=O)N[C@@H](CCC(N)=O)C(=O)N[C@@H](C)C(=O)N[C@@H](CCC(=O)O)C(=O)N[C@H](C(=O)N[C@@H](CC(N)=O)C(=O)N[C@@H](CCCCN)C(=O)N[C@@H](CCC(N)=O)C(=O)N[C@H](C(=O)N[C@@H](CC(C)C)C(=O)N[C@@H](C)C(=O)N[C@@H](CCC(N)=O)C(=O)N[C@H](C(N)=O)C(C)C)[C@@H](C)CC)[C@@H](C)O)[C@@H](C)CC)[C@@H](C)CC)C(C)C)C(C)C [compound 103] (H-IVLSLDVPIKLK([AEEA-AEEA-γGlu-C18 diacid])QILLEQERQK[Aib]QREQAETNKQILAQV-NH2)
2 | 0.32 |  | > 100 | 3.7 | CC[C@H](C)[C@H](N)C(=O)N[C@H](C(=O)N[C@@H](CC(C)C)C(=O)N[C@@H](CO)C(=O)N[C@@H](CC(C)C)C(=O)N[C@@H](CC(=O)O)C(=O)N[C@H](C(=O)N1CCC[C@H]1C(=O)N[C@H](C(=O)N[C@@H](CCCCN)C(=O)N[C@@H](CC(C)C)C(=O)N[C@@H](CCCCNC(=O)COCCOCCNC(=O)COCCOCCNC(=O)CC[C@H](NC(=O)CCCCCCCCCCCCCCCCC(=O)O)C(=O)O)C(=O)N[C@@H](CCC(N)=O)C(=O)N[C@H](C(=O)N[C@@H](CC(C)C)C(=O)N[C@@H](CC(C)C)C(=O)N[C@@H](CCCCN)C(=O)N[C@@H](CCC(N)=O)C(=O)N[C@@H](CCC(=O)O)C(=O)N[C@@H](CCCNC(=N)N)C(=O)N[C@@H](CCC(N)=O)C(=O)N[C@@H](CCCCN)C(=O)NC(C)(C)C(=O)N[C@@H](CCC(N)=O)C(=O)N[C@@H](CCCNC(=N)N)C(=O)N[C@@H](CCC(=O)O)C(=O)N[C@@H](CCC(N)=O)C(=O)N[C@@H](C)C(=O)N[C@@H](CCC(=O)O)C(=O)N[C@H](C(=O)N[C@@H](CC(N)=O)C(=O)N[C@@H](CCCCN)C(=O)N[C@@H](CCC(N)=O)C(=O)N[C@H](C(=O)N[C@@H](CC(C)C)C(=O)N[C@@H](C)C(=O)N[C@@H](CCC(N)=O)C(=O)N[C@H](C(N)=O)C(C)C)[C@@H](C)CC)[C@@H](C)O)[C@@H](C)CC)[C@@H](C)CC)C(C)C)C(C)C [compound 104] (H-IVLSLDVPIKLK([AEEA-AEEA-γGlu-C18 diacid])QILLKQERQK[Aib]QREQAETNKQILAQV-NH2)

More lines, now with the values behind:

Row | SMILES | EC50 (human CRF2α receptor; [1]) [nM] | EC50 (human CRF2α receptor; 0.1% HSA, read-out: EC50 [nM], 0.1% HSA) [nM] | EC50 (CRF1R receptor) [nM] | Emax (CRF1R receptor) [%]
3 | CC[C@H](C)[C@H](N)C(=O)N[C@H](C(=O)N[C@@H](CC(C)C)C(=O)N[C@@H](CO)C(=O)N[C@@H](CC(C)C)C(=O)N[C@@H](CC(=O)O)C(=O)N[C@H](C(=O)N1CCC[C@H]1C(=O)N[C@H](C(=O)N[C@@H](CCCCN)C(=O)N[C@@H](CC(C)C)C(=O)N[C@@H](CCCCNC(=O)COCCOCCNC(=O)COCCOCCNC(=O)CC[C@H](NC(=O)CCCCCCCCCCCCCCCCC(=O)O)C(=O)O)C(=O)N[C@@H](CCC(N)=O)C(=O)N[C@H](C(=O)N[C@@H](CC(C)C)C(=O)N[C@@H](CC(C)C)C(=O)N[C@@H](CCCCN)C(=O)N[C@@H](CCC(N)=O)C(=O)N[C@@H](CCC(=O)O)C(=O)N[C@@H](CCCNC(=N)N)C(=O)N[C@@H](CCC(N)=O)C(=O)N[C@@H](CCCCN)C(=O)N[C@@H](CCCCN)C(=O)N[C@@H](CCC(N)=O)C(=O)N[C@@H](CCCNC(=N)N)C(=O)N[C@@H](CCC(=O)O)C(=O)N[C@@H](CCC(N)=O)C(=O)N[C@@H](C)C(=O)N[C@@H](CCCCN)C(=O)N[C@H](C(=O)N[C@@H](CC(N)=O)C(=O)NC(C)(C)C(=O)N[C@@H](CCC(N)=O)C(=O)N[C@H](C(=O)N[C@@H](CC(C)C)C(=O)N[C@@H](C)C(=O)N[C@@H](CCC(N)=O)C(=O)N[C@H](C(N)=O)C(C)C)[C@@H](C)CC)[C@@H](C)O)[C@@H](C)CC)[C@@H](C)CC)C(C)C)C(C)C [compound 89] (H-IVLSLDVPIKLK([AEEA-AEEA-γGlu-C18 diacid])QILLKQERQKKQREQAKTN[Aib]QILAQV-NH2) | 0.3 | 15.6 | > 100 | 3.7
4 | CC[C@H](C)[C@H](N)C(=O)N[C@H](C(=O)N[C@@H](CC(C)C)C(=O)N[C@@H](CO)C(=O)N[C@@H](CC(C)C)C(=O)N[C@@H](CC(=O)O)C(=O)N[C@H](C(=O)N1CCC[C@H]1C(=O)N[C@H](C(=O)N[C@@H](CCCCN)C(=O)N[C@@H](CC(C)C)C(=O)N[C@@H](CCCCNC(=O)COCCOCCNC(=O)COCCOCCNC(=O)CC[C@H](NC(=O)CCCCCCCCCCCCCCCCC(=O)O)C(=O)O)C(=O)N[C@@H](CCC(N)=O)C(=O)N[C@H](C(=O)N[C@@H](CC(C)C)C(=O)N[C@@H](CC(C)C)C(=O)N[C@@H](CCCCN)C(=O)N[C@@H](CCC(N)=O)C(=O)N[C@@H](CCC(=O)O)C(=O)N[C@@H](CCCNC(=N)N)C(=O)N[C@@H](CCC(N)=O)C(=O)N[C@@H](CCCCN)C(=O)N[C@@H](CCCCN)C(=O)N[C@@H](CCC(=O)O)C(=O)N[C@@H](CCCNC(=N)N)C(=O)N[C@@H](CCC(=O)O)C(=O)N[C@@H](CCC(N)=O)C(=O)N[C@@H](C)C(=O)N[C@@H](CCC(=O)O)C(=O)N[C@H](C(=O)N[C@@H](CC(N)=O)C(=O)N[C@@H](CCCCN)C(=O)N[C@@H](CCC(N)=O)C(=O)N[C@H](C(=O)N[C@@H](CC(C)C)C(=O)N[C@@H](C)C(=O)N[C@@H](CCC(N)=O)C(=O)N[C@H](C(N)=O)C(C)C)[C@@H](C)CC)[C@@H](C)O)[C@@H](C)CC)[C@@H](C)CC)C(C)C)C(C)C [compound 96] (H-IVLSLDVPIKLK([AEEA-AEEA-γGlu-C18 diacid])QILLKQERQKKEREQAETNKQILAQV-NH2; N-terminus assumed) | 0.38 |  | > 100 | 2.3
5 | CC[C@H](C)[C@H](N)C(=O)N[C@H](C(=O)N[C@@H](CC(C)C)C(=O)N[C@@H](CO)C(=O)N[C@@H](CC(C)C)C(=O)N[C@@H](CC(=O)O)C(=O)N[C@@H](C(=O)N1CCC[C@H]1C(=O)N[C@H](C(=O)N[C@@H](CCCCN)C(=O)N[C@@H](CC(C)C)C(=O)N[C@@H](CCCCNC(=O)COCCOCCNC(=O)COCCOCCNC(=O)CC[C@H](NC(=O)CCCCCCCCCCCCCCCCC(=O)O)C(=O)O)C(=O)N[C@@H](CCC(N)=O)C(=O)N[C@H](C(=O)N[C@@H](CC(C)C)C(=O)N[C@@H](CC(C)C)C(=O)N[C@@H](CCCCN)C(=O)N[C@@H](CCC(N)=O)C(=O)N[C@@H](CCC(=O)O)C(=O)N[C@@H](CCCNC(=N)N)C(=O)N[C@@H](CCC(N)=O)C(=O)N[C@@H](CCCCN)C(=O)N[C@@H](CCCCN)C(=O)N[C@@H](CCC(N)=O)C(=O)N[C@@H](CCCNC(=N)N)C(=O)N[C@@H](CCC(=O)O)C(=O)N[C@@H](CCC(N)=O)C(=O)N[C@@H](C)C(=O)N[C@@H](CCC(=O)O)C(=O)N[C@H](C(=O)N[C@@H](CC(N)=O)C(=O)N[C@@H](CCCCN)C(=O)N[C@@H](CCC(N)=O)C(=O)N[C@H](C(=O)N[C@@H](CC(C)C)C(=O)N[C@@H](C)C(=O)N[C@@H](CCC(N)=O)C(=O)N[C@H](C(N)=O)C(C)C)[C@@H](C)CC)[C@@H](C)O)[C@@H](C)CC)[C@@H](C)CC)C(C)C)C(C)C [compound 102] (H-IVLSLD[dV]PIKLK([AEEA-AEEA-γGlu-C18 diacid])QILLKQERQKKQREQAETNKQILAQV-NH2; N-terminus assumed) | 0.07 |  | > 100 | 9
